Assay results reported in article PMC9945084, “Stimulation of natural killer cells with small molecule inhibitors of CD38 for the treatment of neuroblastoma” (Chemical Science, 2023).
Values joined by “and” are separate entries in the source; they are usually repeats but may differ in a detail not shown here. Equal values may be shown once.

What was measured:
CD38 hydrolase activity [1] = settings: cited from earlier work
[2] = molecular target: T1, human recombinant CD38 (hydrolase activity) (Homo sapiens, UniProt P28907); assay: Human recombinant CD38 fluorometric enzyme assay, hydrolase activity (εNAD+); assay type: biochemical; settings: for remaining activity at 50 µM: 50.0 μM compound, 10 nM recombinant CD38, 10 μM εNAD+; for IC50: recombinant CD38 enzyme assay; for decrease in potency relative to hit compound 1: CD38 hydrolase IC50 versus 1
Description: Compounds were screened for inhibition against CD38 hydrolase activity in a human recombinant CD38 fluorometric assay. Recombinant CD38 was diluted in assay diluent (PBS, 0.02% Tween-20, pH 7.4) to a 4× working concentration (40 nM). Test compounds were diluted in assay diluent to a working concentration of 200 μM. Working CD38 (25.0 μL) and the 4× test compound (25.0 μL) were pipetted into a black 96-well microplate and incubated for 15 minutes at 25 °C on an orbital shaker. Following incubation, 20 μM εNAD^+ (50 μL) was pipetted into each well and fluorescence intensity was measured kinetically for 10 minutes (ex/em: 300/410 nm) using a Molecular Devices SpectraMax iD3 plate reader. Final concentrations of all components were: 10 nM recombinant CD38, 50 μM test compound (50 nM for control compound 3), and 10 μM εNAD^+. Means for data points at 1 minute 49 seconds were normalized to vehicle treated control. Values were expressed as percent remaining activity of CD38. Each assay was conducted in technical and experimental triplicate and compared to literature reported values of 14.

[3] = molecular target: T1, human recombinant CD38 (hydrolase activity); assay: as above; assay type: biochemical; settings: 25 μM compound
[4] = tested on: Human PB NK cells (IFNγ secretion); assay: Quantitation of IFNγ secreted by PB NK cells, 24 h (Lumit IFNγ assay); assay type: cell-based
Description: In light of the substantial change in viability/proliferation of PB NK cells following treatment with 2, changes in the ability of treated NK cells to secrete IFNγ were measured.[60,61] Human PB NK cells (purity > 90%) were added to a 96-well plate at a confluency of 49 000 cells per well in Immunocult-XF T cell expansion medium supplemented with 500 IU mL^−1 IL-2, 10 ng mL^−1 IL-15, and 0.2 μL mL^−1 CD2/CD3/CD28 T cell activator. These cells were exposed to varying concentrations of 2 or 14 for 24 hours, followed by quantification of IFNγ using a Lumit IFNγ assay kit (W6040, Promega, Madison, WI). Treatment groups were normalized to vehicle-treated control and data was expressed as percent change in IFNγ. As often happens, we encountered a wide variability in the response of human primary cells from different donors. […] Despite the variability in the magnitude of the IFNγ response, the trend in all 3 donors was a dose-dependent increase for both 2 and 14. Decreases in IFNγ expression at higher doses of both compounds in donors 2 and 3 may be due to modest cytotoxicity.
Human PB NK cells were plated at 49 000 cells per well (60 μL per well) on a white, clear-bottom, 96-well microplate in Immunocult-XF T cell expansion medium supplemented with 1× penicillin/streptomycin, 500 IU mL^−1 IL-2, 10 ng mL^−1 IL-15, 0.2 μL mL^−1 CD2/CD3/CD28 T cell activator. Test compounds were dissolved in DMSO and diluted to a 4× working solution. Working test compound was added to the cells (20 μL) and the cells were incubated at 37 °C, 5% CO2 for 24 hours. The last 3 columns on the microplate were left empty for IFNγ standards. The provided human IFNγ standard (10 μg mL^−1) was diluted to 10 000 pg mL^−1 using cell culture medium. The 10 000 pg mL^−1 solution was serially diluted 3.33-fold for a total of 7 standard concentrations. The IFNγ standards were plated (80 μL) in the empty columns (in triplicate) following incubation. A 5× solution of both antibodies was prepared by combining the Lumit Anti-hIFN-γ-mAb-LgBiT (24 μL) and the Lumit Anti-hIFN-γ-mAb-SmBiT (24 μL) with cell culture medium (2.4 mL). The 5× antibody solution (20 μL) was pipetted into each well. The microplate was briefly mixed for 15 seconds on a shaker at 250 rpm and incubated for 90 minutes at 37 °C, 5% CO2. Following incubation, the microplate was allowed to rest at 25 °C for 15 minutes. The Lumit detection substrate (160 μL) was diluted with Lumit detection buffer B (3040 μL) and pipetted into each well (25 μL). The microplate was allowed to incubate for 5 minutes at 25 °C and then the luminescence was measured using a Molecular Devices SpectraMax iD3 plate reader. A standard curve with averaged RLU measurements of the IFNγ concentrations was determined with GraphPad Prism using 4-parameter logistic curve fitting. […]

[5] = tested on: donor 3 PB NK cells (IFNγ secretion); assay: 20 day treatment of PB NK cells, IFNγ in supernatant (Lumit IFNγ assay); assay type: cell-based, human; settings: donor 3, fresh medium every 3 days, day 20
Description: The TME has the ability to down regulate NK cell activation and function, therefore it is important to discern whether inhibition of CD38 hydrolase activity over an extended period will improve NK cell activation and support a persistent response.[62] To address this question, donor 3 PB NK cells were plated on a 12-well plate at a confluency of 1 × 10^6 cells mL^−1 in Immunocult-XF T cell expansion medium supplemented with 500 IU mL^−1 IL-2, 10 ng mL^−1 IL-15, and 0.2 μL mL^−1 CD2/CD3/CD28 T cell activator. Cells were treated with vehicle control, 2, or 14. Cells were treated with fresh medium every 3 days over the course of 20 days. Cells from each treatment group were counted on the 20th day of treatment and viability determined using trypan blue. NK cells treated with 2 or 14 were normalized to vehicle control with the percent change in viable cells presented as a function of the treatment condition (Fig. 8A). We observed 43 ± 6% more viable cells in the group treated with 14 and 36 ± 13% more viable cells in the group treated with 2, relative to vehicle control. Additionally, on the 20th day of treatment the cell supernatant was collected and analyzed for IFNγ using the Promega Lumit IFNγ assay. Treatment groups were normalized to vehicle control and the data presented as IFNγ % difference as a function of treatment (Fig. 8B). […]

NAD+ levels = tested on: NAD+ levels; design: method as in PMID 35497564; settings: cited from earlier work
SHSY5Y-GFP NB cells = assay: SHSY5Y-GFP and PB NK cell co-culture assay with ch14.18-IL2; assay type: cell-based, human
Description: Following optimization, SHSY5Y-GFP cells were plated at 25 000 cells per well and incubated for 24 hours. PB NK cells stained with cell tracker deep red were added to SHSY5Y-GFP cells with 50 ng mL^−1 ch14.18-IL2 and treated with 2, 14 or vehicle control. Cells were incubated for 90 minutes at 37 °C and imaged using a BioTek Cytation 5 at 20× (Fig. 11A–C). Live SHSY5Y-GFP cells were quantitated by measuring the integrated GFP fluorescence intensity. After only 90 minutes treatment with a 1.0 μM concentration of 2 and 50 ng mL^−1 ch14.18-IL2a caused a 14 ± 3% decrease in SHSY5Y-GFP fluorescent area (Fig. 11B) relative to vehicle-treated control (Fig. 11A). […] Fig. 12 is a close-up view from a representative well showing the effects of 1 μM 2 combined with 50 ng mL^−1 ch14.18-IL2.
SHSY5Y-GFP NB cells were plated at a concentration of 25 000 cells per well (100 μL) for 12 hours on a black, clear-bottom, 96-well microplate. PB NK cells were washed with PBS and resuspended in 5 μM cell tracker deep red in RPMI 1640 without FBS for 30 minutes at 37 °C, 5% CO2. Following incubation, cells were washed with PBS and resuspended in RPMI 1640 supplemented with 10% FBS. Compounds were dissolved in DMSO and diluted to a 4 μM working solution with cell culture medium. […] The sum integration of GFP area was measured and normalized to vehicle-treated control. […]

SHSY5Y-GFP cells = assay: Proliferative effect on SHSY5Y-GFP cells alone, 24 h imaging; assay type: cell-based, human; settings: 1.0 μM, at both 20 000 and 30 000 cells per well
Description: SHSY5Y-GFP cells were plated at 20 000, 30 000, 40 000, and 50 000 cells per well with 6 test wells each. Cells were incubated for 24 hours and imaged with a BioTek Cytation 5 at 20× with 4 fields per well using brightfield and GFP channels. The data is presented as the sum of SHSY5Y-GFP cells in imaged fields as a function of cells per well (Fig. 9A). Optimal plating density was determined to be between 20 000 and 30 000 cells per well. Additionally, we wanted to rule out proliferative effects in SHSY5Y-GFP cells treated with 2. Cells were plated at 20 000 or 30 000 cells per well and treated with varying concentrations of 2 or vehicle control for 24 hours and imaged as described above. Data was then expressed as the sum of SHSY5Y-GFP cells in imaged fields as a function of the concentration of 2 (Fig. 9B).

CD38 hydrolase activity [6] = tested on: CD38 hydrolase activity; design: method as in PMID 26864107; settings: cited from earlier work
CD38 cyclase activity = tested on: CD38 cyclase activity; design: method as in PMID 26864107; settings: cited from earlier work

T1 sequence (P28907 whole entry): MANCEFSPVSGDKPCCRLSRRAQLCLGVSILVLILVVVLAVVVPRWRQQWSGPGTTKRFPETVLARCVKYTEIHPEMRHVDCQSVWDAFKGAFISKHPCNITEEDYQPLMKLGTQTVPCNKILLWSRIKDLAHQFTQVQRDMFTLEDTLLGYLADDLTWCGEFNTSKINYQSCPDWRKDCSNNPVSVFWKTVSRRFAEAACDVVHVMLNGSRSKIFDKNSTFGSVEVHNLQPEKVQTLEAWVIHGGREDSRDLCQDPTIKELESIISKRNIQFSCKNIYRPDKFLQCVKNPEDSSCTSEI

Row | remaining activity at 50 µM [2] [%] | IC50 [2] | decrease in potency relative to hit compound 1 [2] [fold] | Compound | other results
1 | 61.6 ± 2 | 4.2 ± 0.5 µM | – | CC1=CC(C)(C)N=C(Nc2nc(C)c3cc(C)cc(C)c3n2)N1 [Compound 1] | mode of inhibition of CD38 hydrolase activity (CD38 hydrolase activity [1]): mixed inhibition
2 | – | 1.9 ± 0.1 µM | – | COc1cc(C)cc2c(C)nc(NC3=NC(C)(C)C=C(C)N3)nc12 [Compound 2, 8-Methoxy-4,6-dimethyl-N-(4,4,6-trimethyl-1,4-dihydropyrimidin-2-yl)quinazolin-2-amine] | remaining activity at 25 µM [3]: 5.6 ± 0.8%; increase in IFNγ, donor 1 ([4]; donor 1, 1.0 μM): 759 ± 45%; increase in IFNγ, donor 2 ([4]; donor 2, 0.111 μM): 100 ± 29%; increase in IFNγ, donor 3 ([4]; donor 3, 0.037 μM): 18 ± 2%; more IFNγ secreted relative to vehicle control [5]: 20 ± 1%; change in NAD+ levels (NAD+ levels): significant increases; decrease in SHSY5Y-GFP fluorescent area relative to vehicle-treated control (SHSY5Y-GFP NB cells; 1.0 μM + 50 ng mL−1 ch14.18-IL2, 90 minutes, effector : target 1 : 1): 14% and 14 ± 3%; cell number difference between vehicle-treated and treated SHSY5Y-GFP cells (SHSY5Y-GFP cells): < 4%
3 | 41 ± 0.03 | 8.4 ± 0.7 µM | 2 | CC1=CC(C)(C)N=C(Nc2nc(C)c3cccc(C)c3n2)N1 [Compound 3] | –
4 | 58.2 ± 1.4 | 5.1 ± 0.9 µM | – | Cc1cc(C)c2nc(Nc3nc(C)c(C)c(O)n3)nc(C)c2c1 [Compound 4] | –
5 | 57 ± 0.3 | 8 µM and 8.3 µM | 2 | CCOc1ccc2nc(Nc3nc(=O)c(Cc4ccccc4)c(C)[nH]3)nc(C)c2c1 [Compound 5] | –
6 | 66.8 ± 0.6 | – | – | Cc1nc(NC2=NCCC(=O)N2)nc2ccccc12 [Compound 6] | –
7 | 60.3 ± 0.7 | 4 ± 0.9 µM | – | Cc1nc(Nc2nc(CCC(C)C)cc(=O)[nH]2)nc2ccccc12 [Compound 7] | –
8 | – | – | – | Cc1nc(NC2=NCN(CCN3CCOCC3)CN2)nc2c(C)cccc12 [Compound 9] | remaining activity at 25 µM [3]: 65.3 ± 0.6%
9 | 49.1 ± 2.2 | 23 µM and 23.8 µM | 5 | CC1=CC(C)(C)N=C(Nc2nc(-c3ccccc3)c3cc(C)cc(C)c3n2)N1 [Compound 11] | –
10 | 52 ± 9.6 | – | ~3 | CC1=NC(Nc2nc(C)c3cc(C)cc(C)c3n2)=NC(C)(C)C1 [Compound 12] | –
11 | 48.1 ± 6.8 | 22.4 ± 1.1 µM | – | CCc1ccc2c(C)nc(NC3=NC(C)(C)C=C(C)N3)nc2c1 [Compound 13] | –
12 | – | 0.078 ± 0.03 µM | – | COCCO[C@H]1CC[C@H](Nc2cc(=O)n(C)c3ccc(-c4cncs4)cc23)CC1 [Compound 14, reference compound] | mode of inhibition of CD38 (CD38 hydrolase activity [1]): mixed inhibition; increases in IFNγ levels, in words ([4]; all 3 donors): similaer to the effects of 2; more IFNγ secreted relative to vehicle control [5]: 23 ± 2%; remaining activity at 0.05 µM ([2]; positive control 14, used at 50.0 nM according to b14 and b58): 60.3 ± 1.8%; change in NAD+ levels (NAD+ levels): significant increases; difference in SHSY5Y-GFP cells versus vehicle-treated control, in words (SHSY5Y-GFP NB cells; 1 μM + 50 ng mL−1 ch14.18-IL2, 90 minutes): not a statistically significant difference
13 | – | – | – | daratumumab | effect on CD38 hydrolase activity (CD38 hydrolase activity [6]): enhances CD38 hydrolase activity; effect on CD38 cyclase activity (CD38 cyclase activity): modest inhibitory activity
